Read-outs that look alike come from different tables or passages of the source.
Legend:
Type in all cases: binding
[1] = biological target: T1, HeLa cell extract proteins (Homo sapiens, UniProt P53621); settings: protein COPA; HeLa
T1 construct: endogenous in cells; host or cells: HeLa cell extract
T1 sequence (P53621 1-1224): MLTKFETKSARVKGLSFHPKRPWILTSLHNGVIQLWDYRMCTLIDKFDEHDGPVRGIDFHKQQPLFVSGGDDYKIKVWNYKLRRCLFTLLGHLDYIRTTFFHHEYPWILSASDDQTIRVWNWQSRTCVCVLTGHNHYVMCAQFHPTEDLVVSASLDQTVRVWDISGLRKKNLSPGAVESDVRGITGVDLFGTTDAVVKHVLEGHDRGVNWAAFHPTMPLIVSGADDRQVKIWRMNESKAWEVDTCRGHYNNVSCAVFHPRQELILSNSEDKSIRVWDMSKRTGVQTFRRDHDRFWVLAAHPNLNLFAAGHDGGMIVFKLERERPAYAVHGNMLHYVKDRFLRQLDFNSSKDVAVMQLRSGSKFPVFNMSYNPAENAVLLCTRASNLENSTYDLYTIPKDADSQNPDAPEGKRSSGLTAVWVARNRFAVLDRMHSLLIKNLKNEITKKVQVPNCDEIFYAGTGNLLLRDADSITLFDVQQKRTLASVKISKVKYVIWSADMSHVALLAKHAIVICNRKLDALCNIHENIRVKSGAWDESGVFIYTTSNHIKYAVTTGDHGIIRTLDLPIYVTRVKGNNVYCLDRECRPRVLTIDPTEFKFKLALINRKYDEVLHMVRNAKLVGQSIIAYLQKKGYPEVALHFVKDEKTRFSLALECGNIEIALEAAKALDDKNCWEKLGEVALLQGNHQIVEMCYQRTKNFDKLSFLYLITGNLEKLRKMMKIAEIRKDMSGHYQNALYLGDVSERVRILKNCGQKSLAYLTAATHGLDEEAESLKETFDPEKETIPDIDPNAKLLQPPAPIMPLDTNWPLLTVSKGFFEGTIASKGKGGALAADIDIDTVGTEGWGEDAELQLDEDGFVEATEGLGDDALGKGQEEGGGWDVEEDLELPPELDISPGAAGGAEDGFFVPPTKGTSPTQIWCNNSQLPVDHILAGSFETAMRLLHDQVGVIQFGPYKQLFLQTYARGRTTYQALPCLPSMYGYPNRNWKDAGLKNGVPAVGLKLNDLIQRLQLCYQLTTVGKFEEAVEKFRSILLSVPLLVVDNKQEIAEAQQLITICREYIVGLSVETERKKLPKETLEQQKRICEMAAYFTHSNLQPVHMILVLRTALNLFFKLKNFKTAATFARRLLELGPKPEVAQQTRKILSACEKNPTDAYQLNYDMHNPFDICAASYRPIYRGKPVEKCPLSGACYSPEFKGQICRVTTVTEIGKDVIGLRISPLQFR

[2] = biological target: T2, HeLa cell extract proteins (Homo sapiens, UniProt Q969X5); settings: protein ERGIC1; HeLa
T2 construct: endogenous in cells; host or cells: HeLa cell extract
T2 sequence (Q969X5 1-290): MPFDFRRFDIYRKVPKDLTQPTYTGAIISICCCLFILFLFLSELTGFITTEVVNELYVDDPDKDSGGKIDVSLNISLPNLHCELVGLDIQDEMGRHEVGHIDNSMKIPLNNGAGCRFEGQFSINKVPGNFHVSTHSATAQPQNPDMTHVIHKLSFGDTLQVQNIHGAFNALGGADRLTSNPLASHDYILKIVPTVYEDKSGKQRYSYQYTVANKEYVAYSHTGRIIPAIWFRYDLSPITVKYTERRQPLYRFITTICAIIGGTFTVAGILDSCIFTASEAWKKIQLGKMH

[3] = test system: HeLa cell extract proteins; settings: HeLa
[4] = biological target: T3, HeLa cell extract proteins (Homo sapiens, UniProt Q13155); settings: HeLa; captured protein JTV1
T3 construct: endogenous in cells; host or cells: HeLa cell extract
T3 sequence (Q13155 1-320): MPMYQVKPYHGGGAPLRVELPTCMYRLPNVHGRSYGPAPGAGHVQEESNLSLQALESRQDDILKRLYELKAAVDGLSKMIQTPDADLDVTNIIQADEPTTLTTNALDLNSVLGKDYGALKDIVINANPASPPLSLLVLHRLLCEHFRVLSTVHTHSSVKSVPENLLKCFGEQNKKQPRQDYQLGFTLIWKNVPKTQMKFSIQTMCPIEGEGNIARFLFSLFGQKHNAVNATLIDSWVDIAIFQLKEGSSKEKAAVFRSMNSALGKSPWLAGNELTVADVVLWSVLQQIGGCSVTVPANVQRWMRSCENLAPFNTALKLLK

[5] = biological target: T4, HeLa cell extract proteins (Homo sapiens, UniProt Q9Y5L0); settings: HeLa; captured protein TNPO3
T4 construct: endogenous in cells; host or cells: HeLa cell extract
T4 sequence (Q9Y5L0 1-923): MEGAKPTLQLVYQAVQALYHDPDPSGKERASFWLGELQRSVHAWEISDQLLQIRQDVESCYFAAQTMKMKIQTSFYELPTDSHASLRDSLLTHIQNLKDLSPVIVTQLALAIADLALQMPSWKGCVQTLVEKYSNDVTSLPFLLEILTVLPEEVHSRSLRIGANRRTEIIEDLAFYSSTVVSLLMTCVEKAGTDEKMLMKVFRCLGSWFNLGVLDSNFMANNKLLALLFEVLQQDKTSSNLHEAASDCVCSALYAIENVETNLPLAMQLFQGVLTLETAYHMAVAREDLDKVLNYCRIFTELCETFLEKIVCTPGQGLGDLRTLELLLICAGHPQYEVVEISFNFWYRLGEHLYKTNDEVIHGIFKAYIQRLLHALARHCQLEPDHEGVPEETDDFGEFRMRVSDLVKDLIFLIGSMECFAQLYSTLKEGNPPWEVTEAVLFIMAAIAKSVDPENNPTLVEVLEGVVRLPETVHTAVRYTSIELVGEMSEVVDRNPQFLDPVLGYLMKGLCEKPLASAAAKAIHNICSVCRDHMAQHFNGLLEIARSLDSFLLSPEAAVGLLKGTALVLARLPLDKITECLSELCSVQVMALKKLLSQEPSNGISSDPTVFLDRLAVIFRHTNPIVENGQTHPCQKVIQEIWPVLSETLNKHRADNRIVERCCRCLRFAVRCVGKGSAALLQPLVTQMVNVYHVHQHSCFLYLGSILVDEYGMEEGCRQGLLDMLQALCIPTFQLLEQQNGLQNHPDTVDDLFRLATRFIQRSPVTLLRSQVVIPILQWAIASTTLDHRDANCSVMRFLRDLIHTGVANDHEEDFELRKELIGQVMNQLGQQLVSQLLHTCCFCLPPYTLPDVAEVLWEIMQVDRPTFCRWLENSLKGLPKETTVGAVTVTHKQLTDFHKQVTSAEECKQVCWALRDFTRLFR

[6] = protein ABCB7 (ISOFORM 2 OF ATP-BINDING CASSETTE SUB-FAMILY B MEMBER 7, MIT[…])
[7] = protein ASAH1 (N-ACYLSPHINGOSINE AMIDOHYDROLASE (ACID CERAMIDASE) 1 ISOFORM B)
[8] = protein MYL6 (ISOFORM SMOOTH MUSCLE OF MYOSIN LIGHT POLYPEPTIDE 6)
[9] = protein PSMA1 (ISOFORM LONG OF […] ALPHA TYPE 1)

Row | Compound | fold changes relative to vehicle control [1] | fold changes relative to vehicle control [2] | fold changes relative to vehicle control ([3]; captured protein EIF1AP1) | fold changes relative to vehicle control ([3]; captured protein LOC442497) | fold changes relative to vehicle control [3, 6] | fold changes relative to vehicle control [3, 7] | fold changes relative to vehicle control ([3]; protein GTPBP3 (ISOFORM 2 OF TRNA MO[…] GTPBP3, MIT[…])) | fold changes relative to vehicle control ([3]; protein LOC654188) | fold changes relative to vehicle control [3, 8] | fold changes relative to vehicle control ([3]; protein NME1-NME2) | fold changes relative to vehicle control [3, 9] | fold changes relative to vehicle control ([3]; protein PSME1 ([…] SUBUNIT 1 ISOFORM 2)) | fold changes relative to vehicle control ([3]; protein RPLP0-LIKE) | fold changes relative to vehicle control ([3]; protein HIST2H2BA) | fold changes relative to vehicle control ([3]; protein LOC646960) | fold changes relative to vehicle control [4] | fold changes relative to vehicle control [5] | fold changes relative to vehicle control ([3]; protein GTPBP3 (ISOFORM 2 OF TRNA MODIFICATION GTPASE GTPBP3, MITOCHONDRIAL PRECURSOR)) | fold changes relative to vehicle control ([3]; protein PSME1 (PROTEASOME ACTIVATOR SUBUNIT 1 ISOFORM 2))
1 | NCCOCCOCC(=O)Nc1nc2ncc(CNc3ccc(C(=O)NC(CCC(=O)O)C(=O)O)cc3)nc2c(=O)[nH]1 (stereo not shown) [compound 6] | 1 | 0.86 | 1.27 | 1.13 | 1.25 | 1.17 | 1.03 | 1.3 | 1.7 | 1.27 | 1.05 | 1.04 | 0.88 | 1.03 | 1.05 | 0.89 | 1.04 |  | 
2 | NCCCNc1ccc(C(=O)NC(CCC(=O)O)C(=O)O)cc1 (stereo not shown) [compound 7] | 0.89 | 1.31 | 0.98 | 1.05 | 1.23 | 1.18 |  | 0.99 | 1.14 | 0.91 | 1.02 |  | 0.93 | 0.9 | 1.02 | 0.85 | 0.96 | 1 | 0.98

— publication PMC6199744, “Development of Chemical Proteomics for the Folateome and Analysis of the Kinetoplastid Folateome” (ACS Infectious Diseases, 2018)
